Results published in ChEMBL document CHEMBL4024791, “Identification of Morpholino-2H-pyrido[3,2-b][1,4]oxazin-3(4H)-ones as Nonsteroidal Mineralocorticoid Antagonists” (J Med Chem, 2018).

Columns and labels:
[1] = molecular target: T1, Mineralocorticoid receptor (Homo sapiens, UniProt P08235)
T1 sequence (P08235 whole entry): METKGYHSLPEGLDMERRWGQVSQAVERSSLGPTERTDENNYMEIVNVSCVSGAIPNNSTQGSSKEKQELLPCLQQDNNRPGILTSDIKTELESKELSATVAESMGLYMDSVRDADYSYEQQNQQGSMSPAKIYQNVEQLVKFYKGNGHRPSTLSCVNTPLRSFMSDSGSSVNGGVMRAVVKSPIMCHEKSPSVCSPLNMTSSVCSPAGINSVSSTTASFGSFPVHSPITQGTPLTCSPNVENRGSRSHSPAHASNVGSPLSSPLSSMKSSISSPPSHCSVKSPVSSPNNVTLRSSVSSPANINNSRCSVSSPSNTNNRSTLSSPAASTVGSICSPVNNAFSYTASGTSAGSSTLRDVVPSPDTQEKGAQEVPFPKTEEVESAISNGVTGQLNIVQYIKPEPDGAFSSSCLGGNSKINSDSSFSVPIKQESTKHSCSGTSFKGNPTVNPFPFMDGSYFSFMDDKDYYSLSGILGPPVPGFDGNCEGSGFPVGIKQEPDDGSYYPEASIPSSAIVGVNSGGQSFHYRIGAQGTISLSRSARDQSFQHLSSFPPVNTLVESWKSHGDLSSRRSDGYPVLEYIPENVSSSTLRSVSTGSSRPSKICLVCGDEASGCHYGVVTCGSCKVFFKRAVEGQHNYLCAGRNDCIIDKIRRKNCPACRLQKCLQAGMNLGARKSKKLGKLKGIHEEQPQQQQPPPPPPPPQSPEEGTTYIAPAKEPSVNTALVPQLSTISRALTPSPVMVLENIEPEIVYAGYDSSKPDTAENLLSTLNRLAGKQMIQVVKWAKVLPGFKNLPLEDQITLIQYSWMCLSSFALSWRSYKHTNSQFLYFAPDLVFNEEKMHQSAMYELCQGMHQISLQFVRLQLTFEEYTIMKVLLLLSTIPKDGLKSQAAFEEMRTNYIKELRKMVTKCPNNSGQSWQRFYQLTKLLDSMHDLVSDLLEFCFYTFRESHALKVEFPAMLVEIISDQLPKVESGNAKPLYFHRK
Description: Displacement of [3H]-aldosterone from human GST-tagged MR ligand binding domain after 4 hrs by liquid scintillation counting

[2] = molecular target: T2, CYP1A2 (Homo sapiens, UniProt P05177); test: Inhibition of CYP1A2 (unknown origin) at 3 uM; assay type: ADME
T2 sequence (P05177 whole entry): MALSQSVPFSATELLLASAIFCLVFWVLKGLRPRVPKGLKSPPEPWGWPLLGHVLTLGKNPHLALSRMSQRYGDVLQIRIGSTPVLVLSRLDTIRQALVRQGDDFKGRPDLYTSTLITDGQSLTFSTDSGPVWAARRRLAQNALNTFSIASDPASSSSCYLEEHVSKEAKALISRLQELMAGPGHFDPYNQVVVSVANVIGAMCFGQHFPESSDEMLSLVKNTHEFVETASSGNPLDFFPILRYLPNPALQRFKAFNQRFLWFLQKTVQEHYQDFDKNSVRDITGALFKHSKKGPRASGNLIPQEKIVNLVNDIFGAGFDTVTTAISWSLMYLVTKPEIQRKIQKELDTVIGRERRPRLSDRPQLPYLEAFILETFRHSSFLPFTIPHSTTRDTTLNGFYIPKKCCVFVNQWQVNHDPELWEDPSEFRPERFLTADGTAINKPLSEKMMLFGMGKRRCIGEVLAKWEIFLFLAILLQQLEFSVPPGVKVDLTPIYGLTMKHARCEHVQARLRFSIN

[3] = Fraction unbound in human plasma; assay type: ADME, cell-free
[4] = AUC in Wistar rat at 100 mg/kg, po administered as single dose measured up to 8 hrs post dose by LC-MS analysis; assay type: ADME, organism-based; parameters: dose 100 mg/kg, time < 8 hr, route oral; conditions: in vivo
[5] = Volume of distribution at steady state in dog; assay type: ADME, Canis lupus familiaris; conditions: in vivo, read-out: Vdss
[6] = tested on: MDR1 (P-gp); test: Apparent permeability across apical to basolateral side in MDCK cells expressing human MDR1; assay type: ADME, cell-based, Canis lupus familiaris; conditions: dog
[7] = molecular target: T3, Glucocorticoid receptor (Homo sapiens, UniProt P04150); test: Binding affinity to GR (unknown origin) expressed in human IM9 cells; assay type: cell-based
T3 sequence (P04150 whole entry): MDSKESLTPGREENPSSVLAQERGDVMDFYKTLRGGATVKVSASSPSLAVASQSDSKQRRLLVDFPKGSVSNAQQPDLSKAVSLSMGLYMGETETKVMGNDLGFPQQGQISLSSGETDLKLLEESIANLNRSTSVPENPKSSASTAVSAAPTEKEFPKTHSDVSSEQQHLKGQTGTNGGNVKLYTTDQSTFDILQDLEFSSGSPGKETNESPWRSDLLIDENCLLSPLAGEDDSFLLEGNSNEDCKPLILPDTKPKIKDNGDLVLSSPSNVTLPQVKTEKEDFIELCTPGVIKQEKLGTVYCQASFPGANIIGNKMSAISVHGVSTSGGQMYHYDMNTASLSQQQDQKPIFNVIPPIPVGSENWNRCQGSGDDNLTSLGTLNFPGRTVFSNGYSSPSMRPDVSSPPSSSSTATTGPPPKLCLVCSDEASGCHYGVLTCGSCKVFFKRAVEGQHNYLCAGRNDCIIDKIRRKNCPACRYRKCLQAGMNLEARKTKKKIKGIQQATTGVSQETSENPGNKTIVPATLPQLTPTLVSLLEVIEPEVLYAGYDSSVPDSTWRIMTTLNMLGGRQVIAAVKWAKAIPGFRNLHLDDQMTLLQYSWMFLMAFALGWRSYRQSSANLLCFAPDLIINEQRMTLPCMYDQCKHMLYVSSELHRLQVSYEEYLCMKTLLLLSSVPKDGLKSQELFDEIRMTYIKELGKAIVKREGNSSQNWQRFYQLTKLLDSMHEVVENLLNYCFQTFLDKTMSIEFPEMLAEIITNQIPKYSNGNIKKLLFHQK

[8] = tested on: Rattus norvegicus; test: Effect on reproductive system in Wistar Han rat at 30 to 500 mg/kg, po for 14 days; assay type: ADME, organism-based; conditions: in vivo, 336 h
[9] = Oral bioavailability in rat; assay type: ADME, organism-based; conditions: in vivo

IC50 [1] [nM] | inhibition at 3 µM [2] [%] | fraction unbound [3] | AUC at 8 h [4] [ng·h/mL] | Vd [5] [L/kg] | Papp A→B [6] [×10⁻⁶ cm/s] | IC50 [7] [nM] | bioavailability [9] [%] | SMILES | Activity [8]
401 | < 10 |  |  |  |  |  |  | O=C1COc2ccc(N3CCOC[C@H]3c3ccccc3)cc2N1 | 
 | < 20 | 0.15 | 9410 | 2.37 | 24.9 | 597 | 4 to 16 | C[C@@H]1CN(c2ccc3c(n2)NC(=O)CO3)[C@H](c2ccccc2)CO1 | Non-Toxic
